Measured values published in paper PMC4113215 (Biochemical and biophysical research communications, 2014).

What was measured:
[1] = target: T1, mDMGDH (mature rat DMGDH) (Rattus norvegicus, UniProt Q63342); assay: X-ray crystal structure, […] Å; assay type: binding; conditions: covalent; histidyl(N3)-(8alpha)FAD at His84; no folate
T1 sequence (Q63342 22-857): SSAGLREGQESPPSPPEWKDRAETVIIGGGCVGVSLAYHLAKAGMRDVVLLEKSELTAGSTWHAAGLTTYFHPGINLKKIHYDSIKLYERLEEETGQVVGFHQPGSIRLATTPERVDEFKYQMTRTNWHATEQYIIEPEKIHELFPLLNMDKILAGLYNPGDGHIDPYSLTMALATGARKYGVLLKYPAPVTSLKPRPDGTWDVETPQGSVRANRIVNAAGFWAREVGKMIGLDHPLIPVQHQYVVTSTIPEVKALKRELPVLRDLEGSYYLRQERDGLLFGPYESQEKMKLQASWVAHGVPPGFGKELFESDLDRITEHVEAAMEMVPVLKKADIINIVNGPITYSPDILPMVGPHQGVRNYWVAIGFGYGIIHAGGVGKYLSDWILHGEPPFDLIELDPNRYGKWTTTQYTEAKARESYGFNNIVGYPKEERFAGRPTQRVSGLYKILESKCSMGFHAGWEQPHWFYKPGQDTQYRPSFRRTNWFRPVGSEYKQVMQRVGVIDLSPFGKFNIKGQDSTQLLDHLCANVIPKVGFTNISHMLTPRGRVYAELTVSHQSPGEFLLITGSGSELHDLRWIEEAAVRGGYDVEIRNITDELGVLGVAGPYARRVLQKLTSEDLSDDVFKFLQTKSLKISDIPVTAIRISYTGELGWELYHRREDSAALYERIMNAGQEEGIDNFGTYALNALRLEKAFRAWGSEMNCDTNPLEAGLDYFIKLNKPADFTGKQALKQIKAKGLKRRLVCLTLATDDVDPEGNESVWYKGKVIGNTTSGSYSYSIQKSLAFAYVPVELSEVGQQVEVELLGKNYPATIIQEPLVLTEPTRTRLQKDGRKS

[2] = target: T2, prDMGDH-var2 (precursor DMGDHvar-2) (Rattus norvegicus, UniProt Q63342); assay: X-ray crystal structure, […] Å; assay type: binding; conditions: covalent; histidyl(N3)-(8alpha)FAD at His84; THF also bound
T2 sequence (Q63342 1-857): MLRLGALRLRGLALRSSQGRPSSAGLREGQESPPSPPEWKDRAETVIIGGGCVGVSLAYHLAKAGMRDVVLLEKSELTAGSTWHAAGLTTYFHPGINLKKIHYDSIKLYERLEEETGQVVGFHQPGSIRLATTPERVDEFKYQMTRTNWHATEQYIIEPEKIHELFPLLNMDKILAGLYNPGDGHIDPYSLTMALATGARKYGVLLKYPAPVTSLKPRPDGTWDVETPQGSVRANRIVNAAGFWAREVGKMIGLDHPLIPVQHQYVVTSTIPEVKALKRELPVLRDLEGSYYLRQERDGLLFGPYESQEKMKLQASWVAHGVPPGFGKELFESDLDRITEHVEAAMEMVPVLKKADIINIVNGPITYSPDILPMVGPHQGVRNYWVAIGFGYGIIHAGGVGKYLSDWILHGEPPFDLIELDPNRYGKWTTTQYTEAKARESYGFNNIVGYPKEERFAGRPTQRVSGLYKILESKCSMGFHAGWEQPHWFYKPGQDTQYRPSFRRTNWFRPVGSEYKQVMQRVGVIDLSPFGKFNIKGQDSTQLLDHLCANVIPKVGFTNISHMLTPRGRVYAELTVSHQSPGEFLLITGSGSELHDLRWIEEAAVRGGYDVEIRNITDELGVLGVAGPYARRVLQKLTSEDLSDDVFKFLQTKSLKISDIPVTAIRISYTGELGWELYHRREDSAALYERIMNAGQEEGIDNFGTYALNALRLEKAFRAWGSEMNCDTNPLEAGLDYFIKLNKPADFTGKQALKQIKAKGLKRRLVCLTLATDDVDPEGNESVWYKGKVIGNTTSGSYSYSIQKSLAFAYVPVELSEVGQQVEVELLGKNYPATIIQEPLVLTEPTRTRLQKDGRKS

Cc1cc2nc3c(=O)[nH]c(=O)nc-3n(C[C@H](O)[C@H](O)[C@H](O)COP(=O)(O)OP(=O)(O)OC[C@H]3O[C@@H](n4cnc5c(N)ncnc54)[C@H](O)[C@@H]3O)c2cc1C [FAD]
X-ray crystal structure, 2.32 Å [1]: N-terminal domain covalently binds cofactor FAD through His84
X-ray crystal structure, 1.85 Å [2]: two covalently bound FAD molecules, two folate molecules
